According to US20260027116A1, “Methods of Treating Chronic Graft-Versus-Host Disease Following Allogeneic Hematopoietic Stem Cell Transplantation” (Kadmon Corporation, LLC, priority 2022, published 2026):

System: lung function
Assay: Example 1: percent predicted HGB corrected DLco change from baseline
Format: in vivo, human
Conditions: mean (SD)
Source text: Change From Baseline in Percent Predicted Hemoglobin (HGB) Corrected Diffusing Capacity of Lung for Carbon Monoxide (DLco) at Each Specified Time Points. DLco is a measurement of the ability of the lungs to transfer gases from the air to the blood. Change from baseline in diffusing capacity of the lung for carbon monoxide (percent predicted hemoglobin level corrected) was reported for this measure. Baseline value was defined as valid and last non-missing value obtained within 28 days prior to participant receiving first study medication. EOT visit was performed within 3 days after the participant's last dose of study drug. […] Analysis was performed on mITT population. Here, ‘number analyzed’=participants with available data for each specified category. Here, ‘O’ in the number analyzed field signifies that none of the participants were available for the analysis at the specified time points.

## CC(C)NC(=O)COc1cccc(-c2nc(Nc3ccc4[nH]ncc4c3)c3ccccc3n2)c1 [Belumosudil, 2-{3-[4-(1H-indazol-5-ylamino)-2-quinazolinyl]phenoxy}-N-(propan-2-yl) acetamide]
Cohort 2: 200 mg BID, Cycle 15, Day 1
  Change From Baseline in Percent Predicted Hemoglobin (HGB) Corrected Diffusing Capacity of Lung for Carbon Monoxide (DLco): 1.125 (5.927) Percent Predicted HGB Corrected DLco
Cohort 2: 200 mg BID, Cycle 16, Day 1
  Change From Baseline in Percent Predicted Hemoglobin (HGB) Corrected Diffusing Capacity of Lung for Carbon Monoxide (DLco): −6.618 (15.443) Percent Predicted HGB Corrected DLco
Cohort 2: 200 mg BID, Cycle 17, Day 1
  Change From Baseline in Percent Predicted Hemoglobin (HGB) Corrected Diffusing Capacity of Lung for Carbon Monoxide (DLco): 8.458 (6.229) Percent Predicted HGB Corrected DLco
Cohort 2: 200 mg BID, Cycle 18, Day 1
  Change From Baseline in Percent Predicted Hemoglobin (HGB) Corrected Diffusing Capacity of Lung for Carbon Monoxide (DLco): 15.543 (11.753) Percent Predicted HGB Corrected DLco
Cohort 2: 200 mg BID, Cycle 19, Day 1
  Change From Baseline in Percent Predicted Hemoglobin (HGB) Corrected Diffusing Capacity of Lung for Carbon Monoxide (DLco): 1.824 (8.539) Percent Predicted HGB Corrected DLco
Cohort 2: 200 mg BID, Cycle 20, Day 1
  Change From Baseline in Percent Predicted Hemoglobin (HGB) Corrected Diffusing Capacity of Lung for Carbon Monoxide (DLco): −14.692 (—) Percent Predicted HGB Corrected DLco
Cohort 2: 200 mg BID, Cycle 21, Day 1
  Change From Baseline in Percent Predicted Hemoglobin (HGB) Corrected Diffusing Capacity of Lung for Carbon Monoxide (DLco): −10.661 (—) Percent Predicted HGB Corrected DLco
Cohort 2: 200 mg BID, Cycle 22, Day 1
  Change From Baseline in Percent Predicted Hemoglobin (HGB) Corrected Diffusing Capacity of Lung for Carbon Monoxide (DLco): 3.347 (3.560) Percent Predicted HGB Corrected DLco
Cohort 2: 200 mg BID, Cycle 23, Day 1
  Change From Baseline in Percent Predicted Hemoglobin (HGB) Corrected Diffusing Capacity of Lung for Carbon Monoxide (DLco): −15.184 (20.181) Percent Predicted HGB Corrected DLco
Cohort 2: 200 mg BID, Cycle 24, Day 1
  Change From Baseline in Percent Predicted Hemoglobin (HGB) Corrected Diffusing Capacity of Lung for Carbon Monoxide (DLco): −18.095 (—) Percent Predicted HGB Corrected DLco
Cohort 2: 200 mg BID, Cycle 25, Day 1
  Change From Baseline in Percent Predicted Hemoglobin (HGB) Corrected Diffusing Capacity of Lung for Carbon Monoxide (DLco): 6.289 (2.469) Percent Predicted HGB Corrected DLco
Cohort 2: 200 mg BID, Cycle 27, Day 1
  Change From Baseline in Percent Predicted Hemoglobin (HGB) Corrected Diffusing Capacity of Lung for Carbon Monoxide (DLco): −9.914 (15.387) Percent Predicted HGB Corrected DLco
Cohort 2: 200 mg BID, Cycle 29, Day 1
  Change From Baseline in Percent Predicted Hemoglobin (HGB) Corrected Diffusing Capacity of Lung for Carbon Monoxide (DLco): −18.814 (24.960) Percent Predicted HGB Corrected DLco
Cohort 2: 200 mg BID, Cycle 31, Day 1
  Change From Baseline in Percent Predicted Hemoglobin (HGB) Corrected Diffusing Capacity of Lung for Carbon Monoxide (DLco): −0.800 (17.528) Percent Predicted HGB Corrected DLco
Cohort 2: 200 mg BID, Cycle 33, Day 1
  Change From Baseline in Percent Predicted Hemoglobin (HGB) Corrected Diffusing Capacity of Lung for Carbon Monoxide (DLco): −5.962 (10.550) Percent Predicted HGB Corrected DLco
Cohort 2: 200 mg BID, Cycle 35, Day 1
  Change From Baseline in Percent Predicted Hemoglobin (HGB) Corrected Diffusing Capacity of Lung for Carbon Monoxide (DLco): −0.426 (6.677) Percent Predicted HGB Corrected DLco
Cohort 2: 200 mg BID, Cycle 37, Day 1
  Change From Baseline in Percent Predicted Hemoglobin (HGB) Corrected Diffusing Capacity of Lung for Carbon Monoxide (DLco): −19.228 (—) Percent Predicted HGB Corrected DLco
Cohort 2: 200 mg BID, Cycle 39, Day 1
  Change From Baseline in Percent Predicted Hemoglobin (HGB) Corrected Diffusing Capacity of Lung for Carbon Monoxide (DLco): −6.813 (12.810) Percent Predicted HGB Corrected DLco
Cohort 2: 200 mg BID, Cycle 43, Day 1
  Change From Baseline in Percent Predicted Hemoglobin (HGB) Corrected Diffusing Capacity of Lung for Carbon Monoxide (DLco): 8.775 (—) Percent Predicted HGB Corrected DLco
Cohort 2: 200 mg BID, EOT
  Change From Baseline in Percent Predicted Hemoglobin (HGB) Corrected Diffusing Capacity of Lung for Carbon Monoxide (DLco): 0.985 (5.919) Percent Predicted HGB Corrected DLco
Cohort 3: 400 mg QD, Cycle 2, Day 1
  Change From Baseline in Percent Predicted Hemoglobin (HGB) Corrected Diffusing Capacity of Lung for Carbon Monoxide (DLco): −5.243 (9.830) Percent Predicted HGB Corrected DLco
Cohort 3: 400 mg QD, Cycle 3, Day 1
  Change From Baseline in Percent Predicted Hemoglobin (HGB) Corrected Diffusing Capacity of Lung for Carbon Monoxide (DLco): −3.928 (9.492) Percent Predicted HGB Corrected DLco
Cohort 3: 400 mg QD, Cycle 4, Day 1
  Change From Baseline in Percent Predicted Hemoglobin (HGB) Corrected Diffusing Capacity of Lung for Carbon Monoxide (DLco): 0.278 (9.683) Percent Predicted HGB Corrected DLco
Cohort 3: 400 mg QD, Cycle 5, Day 1
  Change From Baseline in Percent Predicted Hemoglobin (HGB) Corrected Diffusing Capacity of Lung for Carbon Monoxide (DLco): −4.111 (9.138) Percent Predicted HGB Corrected DLco
Cohort 3: 400 mg QD, Cycle 6, Day 1
  Change From Baseline in Percent Predicted Hemoglobin (HGB) Corrected Diffusing Capacity of Lung for Carbon Monoxide (DLco): −3.143 (10.385) Percent Predicted HGB Corrected DLco
Cohort 3: 400 mg QD, Cycle 7, Day 1
  Change From Baseline in Percent Predicted Hemoglobin (HGB) Corrected Diffusing Capacity of Lung for Carbon Monoxide (DLco): −4.275 (11.464) Percent Predicted HGB Corrected DLco
Cohort 3: 400 mg QD, Cycle 8, Day 1
  Change From Baseline in Percent Predicted Hemoglobin (HGB) Corrected Diffusing Capacity of Lung for Carbon Monoxide (DLco): −3.787 (11.983) Percent Predicted HGB Corrected DLco
Cohort 3: 400 mg QD, Cycle 9, Day 1
  Change From Baseline in Percent Predicted Hemoglobin (HGB) Corrected Diffusing Capacity of Lung for Carbon Monoxide (DLco): −2.540 (11.897) Percent Predicted HGB Corrected DLco
Cohort 3: 400 mg QD, Cycle 10, Day 1
  Change From Baseline in Percent Predicted Hemoglobin (HGB) Corrected Diffusing Capacity of Lung for Carbon Monoxide (DLco): 1.328 (8.887) Percent Predicted HGB Corrected DLco
Cohort 3: 400 mg QD, Cycle 11, Day 1
  Change From Baseline in Percent Predicted Hemoglobin (HGB) Corrected Diffusing Capacity of Lung for Carbon Monoxide (DLco): −2.720 (10.920) Percent Predicted HGB Corrected DLco
Cohort 3: 400 mg QD, Cycle 12, Day 1
  Change From Baseline in Percent Predicted Hemoglobin (HGB) Corrected Diffusing Capacity of Lung for Carbon Monoxide (DLco): −1.378 (6.364) Percent Predicted HGB Corrected DLco
Cohort 3: 400 mg QD, Cycle 13, Day 1
  Change From Baseline in Percent Predicted Hemoglobin (HGB) Corrected Diffusing Capacity of Lung for Carbon Monoxide (DLco): 2.091 (13.290) Percent Predicted HGB Corrected DLco
Cohort 3: 400 mg QD, Cycle 14, Day 1
  Change From Baseline in Percent Predicted Hemoglobin (HGB) Corrected Diffusing Capacity of Lung for Carbon Monoxide (DLco): 0.309 (11.651) Percent Predicted HGB Corrected DLco
Cohort 3: 400 mg QD, Cycle 15, Day 1
  Change From Baseline in Percent Predicted Hemoglobin (HGB) Corrected Diffusing Capacity of Lung for Carbon Monoxide (DLco): −5.309 (11.514) Percent Predicted HGB Corrected DLco
Cohort 3: 400 mg QD, Cycle 16, Day 1
  Change From Baseline in Percent Predicted Hemoglobin (HGB) Corrected Diffusing Capacity of Lung for Carbon Monoxide (DLco): −6.840 (15.053) Percent Predicted HGB Corrected DLco
Cohort 3: 400 mg QD, Cycle 17, Day 1
  Change From Baseline in Percent Predicted Hemoglobin (HGB) Corrected Diffusing Capacity of Lung for Carbon Monoxide (DLco): −10.865 (13.346) Percent Predicted HGB Corrected DLco
Cohort 3: 400 mg QD, Cycle 18, Day 1
  Change From Baseline in Percent Predicted Hemoglobin (HGB) Corrected Diffusing Capacity of Lung for Carbon Monoxide (DLco): −3.174 (3.106) Percent Predicted HGB Corrected DLco
Cohort 3: 400 mg QD, Cycle 19, Day 1
  Change From Baseline in Percent Predicted Hemoglobin (HGB) Corrected Diffusing Capacity of Lung for Carbon Monoxide (DLco): −2.020 (2.436) Percent Predicted HGB Corrected DLco
Cohort 3: 400 mg QD, Cycle 20, Day 1
  Change From Baseline in Percent Predicted Hemoglobin (HGB) Corrected Diffusing Capacity of Lung for Carbon Monoxide (DLco): −13.517 (5.936) Percent Predicted HGB Corrected DLco
Cohort 3: 400 mg QD, Cycle 21, Day 1
  Change From Baseline in Percent Predicted Hemoglobin (HGB) Corrected Diffusing Capacity of Lung for Carbon Monoxide (DLco): −12.354 (12.800) Percent Predicted HGB Corrected DLco
Cohort 3: 400 mg QD, Cycle 22, Day 1
  Change From Baseline in Percent Predicted Hemoglobin (HGB) Corrected Diffusing Capacity of Lung for Carbon Monoxide (DLco): −17.222 (16.947) Percent Predicted HGB Corrected DLco
Cohort 3: 400 mg QD, Cycle 23, Day 1
  Change From Baseline in Percent Predicted Hemoglobin (HGB) Corrected Diffusing Capacity of Lung for Carbon Monoxide (DLco): −2.219 (10.614) Percent Predicted HGB Corrected DLco
Cohort 3: 400 mg QD, Cycle 24, Day 1
  Change From Baseline in Percent Predicted Hemoglobin (HGB) Corrected Diffusing Capacity of Lung for Carbon Monoxide (DLco): −11.430 (—) Percent Predicted HGB Corrected DLco
Cohort 3: 400 mg QD, Cycle 25, Day 1
  Change From Baseline in Percent Predicted Hemoglobin (HGB) Corrected Diffusing Capacity of Lung for Carbon Monoxide (DLco): −13.392 (—) Percent Predicted HGB Corrected DLco
Cohort 3: 400 mg QD, Cycle 27, Day 1
  Change From Baseline in Percent Predicted Hemoglobin (HGB) Corrected Diffusing Capacity of Lung for Carbon Monoxide (DLco): −11.154 (—) Percent Predicted HGB Corrected DLco
Cohort 3: 400 mg QD, Cycle 29, Day 1
  Change From Baseline in Percent Predicted Hemoglobin (HGB) Corrected Diffusing Capacity of Lung for Carbon Monoxide (DLco): 8.613 (—) Percent Predicted HGB Corrected DLco
Cohort 3: 400 mg QD, Cycle 31, Day 1
  Change From Baseline in Percent Predicted Hemoglobin (HGB) Corrected Diffusing Capacity of Lung for Carbon Monoxide (DLco): 10.833 (—) Percent Predicted HGB Corrected DLco
Cohort 3: 400 mg QD, Cycle 35, Day 1
  Change From Baseline in Percent Predicted Hemoglobin (HGB) Corrected Diffusing Capacity of Lung for Carbon Monoxide (DLco): 5.088 (—) Percent Predicted HGB Corrected DLco
Cohort 3: 400 mg QD, Cycle 36, Day 1
  Change From Baseline in Percent Predicted Hemoglobin (HGB) Corrected Diffusing Capacity of Lung for Carbon Monoxide (DLco): 10.372 (—) Percent Predicted HGB Corrected DLco
Cohort 3: 400 mg QD, Cycle 39, Day 1
  Change From Baseline in Percent Predicted Hemoglobin (HGB) Corrected Diffusing Capacity of Lung for Carbon Monoxide (DLco): 5.902 (—) Percent Predicted HGB Corrected DLco
Cohort 3: 400 mg QD, EOT
  Change From Baseline in Percent Predicted Hemoglobin (HGB) Corrected Diffusing Capacity of Lung for Carbon Monoxide (DLco): −10.371 (14.208) Percent Predicted HGB Corrected DLco
